Values quoted from earlier work, collected in publication PMC3226709 (Journal of the American Chemical Society, 2011).

Test system: GSTO1
Conditions: read-out: IC50 for GSTO1 inhibition

IC50: 51 nM
SMILES: CC(=O)Oc1ccc2c(c1)Oc1cc(OC(C)=O)ccc1C21OC(=O)c2cc(CCl)ccc21 [CellTracker Green, 5-chloromethylfluorescein diacetate]
